# ChEMBL document CHEMBL1201862, “PubChem BioAssay data set” (2004)
# Active and inactive are the calls of the source.
# How the values were obtained:
# [1] = Luminescence Cell-Based Dose Retest to Confirm Inhibitors of Cancer Stem Cells. [Related pubchem assays (depositor defined):AID2717, AID2721]; format: functional; conditions: Homo sapiens
# [2] = growth suppression of beta-catenin-knockout colon cells, dose response, cell-based, HCT116, human colon tumor (AID 1045); format: functional;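 further: HCT116 colon tumor cells with beta catenin knocked out; cells exposed to compound for 60 hours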
# [3] = growth suppression of PTEN-null colon cells, dose response, cell-based, HCT116 PTEN knockout (AID 1047); format: functional;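 further: HCT116 colon tumor cells with PTEN knocked out; cells exposed to compound for 60 hours before readout; potency for loss of cell viability measured by luminescence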
# [4] = P. falciparum Dd2 growth inhibitors, dose response, SYBR Green, cherry-picked samples (AID 1159567); format: functional, cell-based
# [5] = C. albicans growth with fluconazole, confirmation, fluorescence, retest (AID 2467); format: functional, cell-based
# [6] = microbe, parasite or virus in culture; format: functional; conditions: Mycobacterium tuberculosis
# [7] = NIH-3T3 fibroblast cytotoxicity, dose response, cytotoxicity control, cell-based, fluorescence, Alamar Blue, secondary assay (AID 2327); format: functional;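 further: NIH-3T3 mouse fibroblasts cultured with fluconazole at 8 µg/mL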
# [8] = HEp-2 cell cytotoxicity, dose response, cytotoxicity control for RSV inhibitor project, HTS (AID 2410); format: functional; conditions: human respiratory syncytial virus
# Streptococcus = assay: Group A Streptococcus viability loss, dose response, counter-screen for streptokinase expression inhibitor project, luminescence, BacTiterGlo (AID 1915); format: functional, organism-based;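 further: potency for reduction of bacterial viability or growth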
# Streptokinase A = target: T1, Streptokinase A (Streptococcus pyogenes serotype M1, UniProt P10520); assay: S. pyogenes streptokinase expression inhibitors, potency, dose response, plasminogen activation absorbance, OD405 (AID 1914); format: functional, Streptococcus pyogenes M1 GAS;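 further: secreted streptokinase activity via plasminogen activation per viability signal from cell pellet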
# T1 sequence (P10520 whole entry): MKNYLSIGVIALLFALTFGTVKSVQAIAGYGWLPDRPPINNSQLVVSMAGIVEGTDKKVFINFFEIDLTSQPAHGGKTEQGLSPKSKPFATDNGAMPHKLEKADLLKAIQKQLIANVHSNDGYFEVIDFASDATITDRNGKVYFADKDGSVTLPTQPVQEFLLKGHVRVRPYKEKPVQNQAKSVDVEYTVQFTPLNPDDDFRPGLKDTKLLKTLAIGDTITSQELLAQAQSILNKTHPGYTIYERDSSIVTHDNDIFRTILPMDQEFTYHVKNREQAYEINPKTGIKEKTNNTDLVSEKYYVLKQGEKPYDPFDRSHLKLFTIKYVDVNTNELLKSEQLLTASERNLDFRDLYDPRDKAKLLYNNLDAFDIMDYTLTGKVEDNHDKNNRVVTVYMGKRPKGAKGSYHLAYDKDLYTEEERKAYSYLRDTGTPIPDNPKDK
# [9] = system: Streptococcus sp. 'group A'; assay: growth inhibition of control SK(-) GAS strain, dose response, counter-screen for streptokinase expression inhibitor project, luminescence, kanamycin, BacTiterGlo, confirmation (AID 1900); format: functional, organism-based
# [10] = target: T2, Heat shock factor protein 1 (Mus musculus, UniProt P38532); assay: inhibition of MG132-induced HSE-luciferase signal, confirmation, cell-based, NIH3T3, luminescence, dose retest (AID 2382); format: functional;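 further: NIH3T3 fibroblasts with HSF1-driven luciferase reporter stressed by proteasome inhibitor MG132; luminescence from HSF1-driven luciferase expression after 8 hours of MG132 stress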
# T2 sequence (P38532 whole entry): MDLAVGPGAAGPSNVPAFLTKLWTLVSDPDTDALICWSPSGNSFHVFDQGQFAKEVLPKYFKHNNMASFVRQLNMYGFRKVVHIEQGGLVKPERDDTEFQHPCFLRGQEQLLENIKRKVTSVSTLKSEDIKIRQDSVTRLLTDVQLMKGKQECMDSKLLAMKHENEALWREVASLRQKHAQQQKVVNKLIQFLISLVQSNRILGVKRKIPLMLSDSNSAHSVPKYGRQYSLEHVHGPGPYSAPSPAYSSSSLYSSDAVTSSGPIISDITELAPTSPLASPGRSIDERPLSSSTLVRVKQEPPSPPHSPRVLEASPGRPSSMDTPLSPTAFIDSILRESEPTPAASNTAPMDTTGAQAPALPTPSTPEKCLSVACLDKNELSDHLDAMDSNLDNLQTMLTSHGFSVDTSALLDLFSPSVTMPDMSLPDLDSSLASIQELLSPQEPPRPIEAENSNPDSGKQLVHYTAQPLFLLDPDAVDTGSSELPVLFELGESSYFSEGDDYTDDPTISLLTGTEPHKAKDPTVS
# [11] = target: T3, Calpain-2 catalytic subunit (Sus scrofa, UniProt P43367); assay: pig calpain II inhibitor potency, dose response, biochemical, fluorogenic peptide substrate (AID 1420); format: functional
# T3 sequence (P43367 whole entry): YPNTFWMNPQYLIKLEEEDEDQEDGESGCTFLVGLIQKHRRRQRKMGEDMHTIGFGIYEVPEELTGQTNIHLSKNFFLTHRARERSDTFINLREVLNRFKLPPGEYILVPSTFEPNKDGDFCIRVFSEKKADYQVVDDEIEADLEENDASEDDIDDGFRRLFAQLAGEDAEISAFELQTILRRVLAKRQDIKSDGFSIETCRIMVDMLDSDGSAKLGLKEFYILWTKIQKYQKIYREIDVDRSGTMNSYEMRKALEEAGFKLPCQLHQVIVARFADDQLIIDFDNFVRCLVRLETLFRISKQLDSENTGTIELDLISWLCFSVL
# [12] = target: FAD-linked sulfhydryl oxidase ALR (Homo sapiens, UniProt P55789); assay: inhibitors of human ALR sulfhydryl oxidase, dose response, biochemical, H2O2 detection, luminescence, cherry-pick (AID 493248)
# Sequence of FAD-linked sulfhydryl oxidase ALR (P55789 whole entry): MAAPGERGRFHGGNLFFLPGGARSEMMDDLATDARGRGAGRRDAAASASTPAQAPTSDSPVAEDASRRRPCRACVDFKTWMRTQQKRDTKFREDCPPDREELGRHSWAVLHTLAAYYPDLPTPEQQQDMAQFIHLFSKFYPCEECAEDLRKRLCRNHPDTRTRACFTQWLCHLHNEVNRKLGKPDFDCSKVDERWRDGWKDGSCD
# cells [13] = format: functional, cell-based
# cells [14] = format: functional, cell-based; remark: listed apart in the source
smiles,measurement,setting,value
O=C(NC(c1ccc(Cl)cc1)c1c(O)ccc2ccccc12)c1ccccc1 (stereo not given),AC50,[1],1.23 µM (active)
same,EC50,[2],8.69 µM (active)
same,EC50,[3],7.75 µM (active)
N#C[C@@H]1[C@H](c2ccccc2/C=C/c2ccccc2)[C@H](CO)N1S(=O)(=O)c1ccc(F)cc1,AC50,[4],6.19 µM (active)
CC1CCCN(Cc2c(O)ccc3c(O)c(-c4nc5ccccc5s4)c(=N)oc23)C1 (stereo not given),EC50,[2],18.9 µM (active)
same,EC50,[5],> 38 µM (not active)
same,CC50,[6],17.2 µM (active)
same,EC50,[3],13.9 µM (active)
same,EC50,[7],76.2 µM (active)
Cc1cccc(C)c1OCC(O)CN1CCC(CN2C(=O)c3cccc4cccc(c34)C2=O)CC1 (stereo not given),CC50,[8],7.63 µM (active)
same,EC50,Streptococcus,16.7 µM (active)
same,EC50,Streptokinase A,38.2 µM (active)
same,EC50,[2],9.53 µM (active)
same,CC50,[6],23.4 µM (active)
same,EC50,[3],11.7 µM (active)
same,EC50,[9],9.04 µM (active)
C(=N\Nc1ccc2ccccc2n1)/c1ccc2c(c1)OCCO2,CC50,[6],> 40 µM (active)
same,EC50,[10],< 0.16 µM (active)
CNc1ccccc1C(=O)OC(C)C(=O)Nc1ccc(Cl)cn1 (stereo not given),CC50,[6],25.3 µM (active)
O=C(Nc1ccccc1NC(=O)NC1CCCCC1)NC1CCCCC1,EC50,[2],17.8 µM (active)
same,EC50,[3],15.1 µM (active)
O=C(c1ccccn1)N1CC(=O)N2[C@H](CO)[C@@H](c3ccc(C#CCc4ccccc4)cc3)[C@@H]2C1,AC50,[4],6.31 µM (active)
N#Cc1c(Cl)cccc1Oc1ccc(S(=O)(=O)Nc2ccccc2)cc1,IC50,[11],> 50 µM (not active)
CCN1CCN(CC(=O)Nc2sc3c(c2C#N)CCC(C)C3)CC1 (stereo not given),EC50,[2],17.9 µM (active)
same,EC50,[3],15.8 µM (active)
O=C(/C=C/c1c(F)cccc1Cl)c1ccc(F)cc1,CC50,[6],> 40 µM (active)
CC(C)Cn1c(N)c(C(=O)COC(=O)/C=C/c2cccs2)c(=O)n(C)c1=O,IC50,[11],> 50 µM (not active)
CCCC(=O)N1CC2(C1)CN(Cc1ccc(Cl)cc1)[C@H](CO)c1[nH]c3cc(OC)ccc3c12,AC50,[4],6.65 µM (active)
C/C(=N/NC(=O)c1cc(-c2cccc([N+](=O)[O-])c2)[nH]n1)c1ccc(Cl)cc1,IC50,[11],13.6 µM (not active)
O=C(CNCc1ccccc1)Nc1ccc(Oc2ccccc2)cc1,IC50,[11],> 50 µM (not active)
OC[C@H]1CC[C@@H]2O[C@H](CCc3ccc(-c4ccc(F)cc4)cc3)[C@H](n3cc(C4CC4)nn3)C[C@@H]2O1,AC50,[4],5 µM (active)
C=CCn1c(Sc2nc(C)cs2)nc2c1c(=O)[nH]c(=O)n2C,CC50,[8],32.4 µM (active)
same,IC50,[11],> 50 µM (not active)
Nc1ccccc1C#Cc1ccc2[nH]ccc2c1,AC50,[12],14.9 µM (active)
FC(F)(F)c1ccc(-c2n[nH]c(S)n2)cc1,AC50,[12],0.248 µM (active)
same,EC50,cells [13],> 350 µM (not active)
same,EC50,cells [14],> 350 µM (not active)
CC1(c2ccc(O)cc2)NC(=O)N(c2ccccc2)N1 (stereo not given),AC50,[1],4.14 µM (active)
same,AC50,[12],0.015 µM (active)
CN(CC(=O)Nc1ccc(N2CCOCC2)cc1)Cc1cc(=O)n2ccsc2n1,IC50,[11],< 0.4 µM (not active)
